Values joined by “and” are separate entries in the source; they are usually repeats but may differ in a detail not shown here. Equal values may be shown once. Inconclusive results and toxic doses are left out. How the source made its calls: active means survival T/C of 150% or more; inactive means T/C below 125% in these data.
Test system: BDF1 mice, B16 melanoma ip, median survival T/C
Assay: NCI In Vivo Anticancer Drug Screen. Data for tumor model B16 Melanoma (intraperitoneal) in B6D2F1 (BDF1) mice
Conditions: endpoint: median survival time, higher = longer survival
Summary of the method: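 Vehicle-treated animals serve as the reference (C); treated animals (T) are scored for survival or tumor size after tumor transplantation.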

[1] = dose: 100.0 mg/kg/injection, schedule: Q01DX009 (ip), vehicle: Klucel (hydroxypropylcellulose) (HPC)
[2] = dose: 200.0 mg/kg/injection, schedule: Q01DX009 (ip), vehicle: Klucel (hydroxypropylcellulose) (HPC)
[3] = dose: 400.0 mg/kg/injection, schedule: Q01DX009 (ip), vehicle: Klucel (hydroxypropylcellulose) (HPC)
[4] = dose: 50.0 mg/kg/injection, schedule: Q01DX009 (ip), vehicle: saline with Tween-80
[5] = dose: 3.13 mg/kg/injection, schedule: Q01DX009 (ip), vehicle: saline with Tween-80
[6] = dose: 6.25 mg/kg/injection, schedule: Q01DX009 (ip), vehicle: saline with Tween-80
[7] = dose: 12.5 mg/kg/injection, schedule: Q01DX009 (ip), vehicle: saline with Tween-80
[8] = dose: 25.0 mg/kg/injection, schedule: Q01DX009 (ip), vehicle: saline with Tween-80
[9] = dose: 12.5 mg/kg/injection, schedule: Q01DX009 (ip), vehicle: Klucel (hydroxypropylcellulose) (HPC)
[10] = dose: 25.0 mg/kg/injection, schedule: Q01DX009 (ip), vehicle: Klucel (hydroxypropylcellulose) (HPC)
[11] = dose: 50.0 mg/kg/injection, schedule: Q01DX009 (ip), vehicle: Klucel (hydroxypropylcellulose) (HPC)

Measured: T/C

CC(=O)Nc1ccc(C#N)c2ccccc12
inactive: [1] 124 % of control | [2] 111 % of control | [3] 111 % of control

CC(Br)C(=O)NC(CC(N)=O)C(=O)O (centres undefined)
inactive: [4] 91 % of control | dose: 100.0 mg/kg/injection, schedule: Q01DX009 (ip), vehicle: saline with Tween-80 104 % of control | dose: 200.0 mg/kg/injection, schedule: Q01DX009 (ip), vehicle: saline with Tween-80 93 % of control

O=S(=O)(O)O.[O]=[V]
inactive: dose: 1.56 mg/kg/injection, schedule: Q01DX009 (ip), vehicle: saline with Tween-80 87 % of control | [5] 97 % of control | [6] 94 % of control

Oc1c(Cl)c(Cl)c(Cl)c(Cl)c1Cl (tested in a mixture with another compound)
inactive: [7] 107 % of control | dose: 12.5 mg/kg/injection, schedule: Q04DX003 (ip), vehicle: saline with Tween-80 122 % of control | [8] 115 % of control | dose: 25.0 mg/kg/injection, schedule: Q04DX003 (ip), vehicle: saline with Tween-80 102 % of control | [4] 121 % of control | dose: 50.0 mg/kg/injection, schedule: Q04DX003 (ip), vehicle: saline with Tween-80 102 % of control

CN1CCC(=C(C#N)C#N)CC1
inactive: dose: 3.13 mg/kg/injection, schedule: Q04DX003 (ip), vehicle: saline 105 % of control | dose: 6.25 mg/kg/injection, schedule: Q04DX003 (ip), vehicle: saline 94 % of control | dose: 12.5 mg/kg/injection, schedule: Q04DX003 (ip), vehicle: saline 110 % of control

C1COC(NC2CC3CCC2C3)=N1 (centres undefined)
inactive: [6] 107 % of control | [7] 100 % of control | [8] 100 % of control

C/C=C/CC(C/C=C/C)C1CC[N-]CC1.C/C=C/CC(C/C=C/C)C1CC[N-]CC1.[Cl][Pt+2]([Cl])([Cl])[Cl]
inactive: dose: 1.56 mg/kg/injection, schedule: Q01DX009 (ip), vehicle: other 97 % of control | dose: 3.13 mg/kg/injection, schedule: Q01DX009 (ip), vehicle: other 97 % of control | dose: 6.25 mg/kg/injection, schedule: Q01DX009 (ip), vehicle: other 100 % of control | dose: 12.5 mg/kg/injection, schedule: Q01DX009 (ip), vehicle: other 97 % of control | dose: 25.0 mg/kg/injection, schedule: Q01DX009 (ip), vehicle: other 96 % of control

Cc1cc(N(C)C)cc(C)c1N=Nc1cc[n+]([O-])cc1
inactive: [5] 98 % of control | [6] 100 % of control | [7] 105 % of control | [8] 108 % of control | [4] 95 % of control and 113 % of control

O=C(O)CCC1CCCCC1=O (centres undefined)
inactive: [2] 120 % of control | [3] 100 % of control

COc1ccc(OCC(O)CN2CCN(c3ccc(Cl)cc3)CC2)cc1 (centres undefined)
inactive: dose: 6.25 mg/kg/injection, schedule: Q01DX009 (ip), vehicle: Klucel (hydroxypropylcellulose) (HPC) 97 % of control | [9] 105 % of control | [10] 104 % of control | [11] 111 % of control | [1] 108 % of control | [2] 105 % of control

COC(=O)C1C(O)C(C)C(O)C(C)/C=C\C=C(C)C(=O)Nc2c(C)c(OC(C)=O)c3c(c2O)C(=O)C(C)=C2OCOC(=C23)C(C)=CC(C)(O)C(O)C(C)C1O (centres undefined)
inactive: [9] 112 % of control | [10] 100 % of control | dose: 25.0 mg/kg/injection, schedule: Q01DX009 (ip), vehicle: carboxymethylcellulose (CMC) 107 % of control | [11] 102 % of control | dose: 50.0 mg/kg/injection, schedule: Q01DX009 (ip), vehicle: carboxymethylcellulose (CMC) 103 % of control | dose: 100.0 mg/kg/injection, schedule: Q01DX009 (ip), vehicle: carboxymethylcellulose (CMC) 102 % of control | dose: 200.0 mg/kg/injection, schedule: Q01DX009 (ip), vehicle: carboxymethylcellulose (CMC) 96 % of control

CCCCCCCCCc1ccc(OC(=O)CCC)cc1
inactive: [9] 106 % of control | [10] 94 % of control | [3] 87 % of control

Reference: PubChem BioAssay AID192 (DTP/NCI, 2004)
